Experimental data as given in patent publication US10760110B2, “Antibiotic testing and screening system” (priority 2017, dated 2020).
Where two headings read alike, the source gives them in different places.

How the values were obtained:
Details in all cases: Klebsiella pneumoniae
[1] = tested on: K. pneumoniae NVT1001 ΔramRΔompK35/36 mutant and its revertants; assay: Etest MIC, ΔramRΔompK35/36 mutant and its revertants (Table 7); assay type: cell-based
[2] = tested on: K. pneumoniae NVT1001 strains with carbapenemase plasmids; assay: Etest MIC of β-lactams, OmpK35/36 loss, ΔramR and/or carbapenemase (Table 9); assay type: cell-based, Klebsiella pneumoniae
Procedure: DNA fragments of the resistance genes along with their flanking regions were amplified from clinical plasmids via PCR with specific primer pairs. The resulting PCR fragments were digested and then cloned into the plasmid pACYC177 or pACYC184. The resulting plasmids were then transformed into K. pneumoniae strain NVT1001 via electroporation. The recombinant bacteria were plated onto LB agar plates containing kanamycin (50 mg/L) or chloramphenicol (50 mg/L), and the presence of the cloned gene was confirmed via PCR and DNA sequencing.
The MICs of antibiotics were determined using the Etest (Biodisk AB, Sweden) according to the manufacturer's instructions. The MICs from the Etest, which fall between standard two-fold dilutions, were rounded up to the next highest two-fold value. The MICs of ceftazidime and cefotaxime against K. pneumoniae NVT1001 harbouring the pACYC177 plasmid with blaOXA-48 were further determined using a broth microdilution test according to the recommendations of the CLSI,^25 and the results were interpreted according to the breakpoints established by the CLSI in 2017.^25 Meanwhile, due to the lack of CLSI breakpoints in 2016 and 2017, the results for cephalothin were interpreted according to the breakpoints established by the CLSI in 2015,^26 and the results for moxifloxacin were interpreted according to the breakpoints established by the EUCAST in 2017.^27

[3] = tested on: K. pneumoniae NVT1001 and its ΔompK35/36 and/or ΔramR mutants; assay: Etest MIC, OmpK35/36 loss and AcrAB-TolC overexpression (ΔramR) strains (Table 6); assay type: cell-based, Klebsiella pneumoniae
In short: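 Ceftazidime and cefotaxime were tested by CLSI broth microdilution on the blaOXA-48 pACYC177 transformant of NVT1001, using CLSI 2017 breakpoints. Parent, porin-deleted (ΔompK35/36) and ΔramR strains were tested by Etest, with values between two-fold dilutions rounded up.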

[4] = ΔramRΔompK35/36::ompK35/36 revertant
[5] = ΔramRΔompK35/36::ompK35 revertant
[6] = ΔramRΔompK35/36::ompK36 revertant
[7] = ΔramRΔompK35/36::ramR revertant
[8] = ΔramRΔompK35/36::ramR::ompK35/36 revertant
[9] = ΔramRΔompK35/36::ramR::ompK35 revertant
[10] = ΔramRΔompK35/36::ramR::ompK36 revertant
[11] = IMP-8 on pACYC177, WT (NVT1001), read-out: MIC
[12] = IMP-8 on pACYC177, Δ35 (ΔompK35 mutant)
[13] = IMP-8 on pACYC177, Δ35/36 (ΔompK35/36 mutant)
[14] = IMP-8 on pACYC177, Δ36 (ΔompK36 mutant)
[15] = IMP-8 on pACYC177, ΔramR mutant
[16] = IMP-8 on pACYC177, ΔramRΔ35 (ΔramRΔompK35 mutant)
[17] = IMP-8 on pACYC177, ΔramRΔ35/36 (ΔramRΔompK35/36 mutant)
[18] = IMP-8 on pACYC177, ΔramRΔ36 (ΔramRΔompK36 mutant)
[19] = KPC-2 on pACYC177, WT (NVT1001), read-out: MIC
[20] = KPC-2 on pACYC177, Δ35 (ΔompK35 mutant)
[21] = KPC-2 on pACYC177, Δ35/36 (ΔompK35/36 mutant)
[22] = KPC-2 on pACYC177, Δ36 (ΔompK36 mutant)
[23] = KPC-2 on pACYC177, ΔramR mutant
[24] = KPC-2 on pACYC177, ΔramRΔ35 (ΔramRΔompK35 mutant)
[25] = KPC-2 on pACYC177, ΔramRΔ35/36 (ΔramRΔompK35/36 mutant)
[26] = KPC-2 on pACYC177, ΔramRΔ36 (ΔramRΔompK36 mutant)
[27] = KPC-3 on pACYC177, WT (NVT1001), read-out: MIC
[28] = KPC-3 on pACYC177, Δ35 (ΔompK35 mutant)
[29] = KPC-3 on pACYC177, Δ35/36 (ΔompK35/36 mutant)
[30] = KPC-3 on pACYC177, Δ36 (ΔompK36 mutant)
[31] = KPC-3 on pACYC177, ΔramR mutant
[32] = KPC-3 on pACYC177, ΔramRΔ35 (ΔramRΔompK35 mutant)
[33] = KPC-3 on pACYC177, ΔramRΔ35/36 (ΔramRΔompK35/36 mutant)
[34] = KPC-3 on pACYC177, ΔramRΔ36 (ΔramRΔompK36 mutant)
[35] = NDM-1 on pACYC177, WT (NVT1001), read-out: MIC
[36] = NDM-1 on pACYC177, Δ35 (ΔompK35 mutant)
[37] = NDM-1 on pACYC177, Δ35/36 (ΔompK35/36 mutant)
[38] = NDM-1 on pACYC177, Δ36 (ΔompK36 mutant)
[39] = NDM-1 on pACYC177, ΔramR mutant
[40] = NDM-1 on pACYC177, ΔramRΔ35 (ΔramRΔompK35 mutant)
[41] = NDM-1 on pACYC177, ΔramRΔ35/36 (ΔramRΔompK35/36 mutant)
[42] = NDM-1 on pACYC177, ΔramRΔ36 (ΔramRΔompK36 mutant)
[43] = OXA-48 on pACYC177, WT (NVT1001), read-out: MIC
[44] = OXA-48 on pACYC177, Δ35 (ΔompK35 mutant)
[45] = OXA-48 on pACYC177, Δ35/36 (ΔompK35/36 mutant)
[46] = OXA-48 on pACYC177, Δ36 (ΔompK36 mutant)
[47] = OXA-48 on pACYC177, ΔramR mutant
[48] = OXA-48 on pACYC177, ΔramRΔ35 (ΔramRΔompK35 mutant)
[49] = OXA-48 on pACYC177, ΔramRΔ35/36 (ΔramRΔompK35/36 mutant)
[50] = OXA-48 on pACYC177, ΔramRΔ36 (ΔramRΔompK36 mutant)
[51] = VIM-1 on pACYC177, WT (NVT1001), read-out: MIC
[52] = VIM-1 on pACYC177, Δ35 (ΔompK35 mutant)
[53] = VIM-1 on pACYC177, Δ35/36 (ΔompK35/36 mutant)
[54] = VIM-1 on pACYC177, Δ36 (ΔompK36 mutant)
[55] = VIM-1 on pACYC177, ΔramR mutant
[56] = VIM-1 on pACYC177, ΔramRΔ35 (ΔramRΔompK35 mutant)
[57] = VIM-1 on pACYC177, ΔramRΔ35/36 (ΔramRΔompK35/36 mutant)
[58] = VIM-1 on pACYC177, ΔramRΔ36 (ΔramRΔompK36 mutant)
[59] = no supplemental plasmid, WT (NVT1001), read-out: MIC
[60] = no supplemental plasmid, Δ35 (ΔompK35 mutant)
[61] = no supplemental plasmid, Δ35/36 (ΔompK35/36 mutant)
[62] = no supplemental plasmid, Δ36 (ΔompK36 mutant)
[63] = no supplemental plasmid, ΔramR mutant
[64] = no supplemental plasmid, ΔramRΔ35 (ΔramRΔompK35 mutant)
[65] = no supplemental plasmid, ΔramRΔ35/36 (ΔramRΔompK35/36 mutant)
[66] = no supplemental plasmid, ΔramRΔ36 (ΔramRΔompK36 mutant)
[67] = ΔramRΔ35/36, ΔramRΔompK35/36 mutant

Measured: MIC

CC(=O)OCC1=C(C(=O)O)N2C(=O)[C@@H](NC(=O)Cc3cccs3)[C@H]2SC1 [Cephalothin]
256 µg/mL: [2]; [43] | [2]; [44] | [2]; [61] | [3]; Δ35/36, ΔompK35/36 mutant
128 µg/mL: [1]; [6]
16 µg/mL: [2]; [62] | [3]; Δ36, ΔompK36 mutant
32 µg/mL: [1]; [9]
8 µg/mL: [1]; [8] | [1]; [10] | [2]; [59] | [2]; [60] | [3]; WT, NVT1001, read-out: MIC | [3]; Δ35, ΔompK35 mutant
> 256 µg/mL: [1]; [5] | [1]; [7] | [1]; ΔramRΔompK35/36 mutant | [2]; [11] | [2]; [12] | [2]; [13] | [2]; [14] | [2]; [15] | [2]; [16] | [2]; [17] | [2]; [18] | [2]; [19] | [2]; [20] | [2]; [21] | [2]; [22] | [2]; [23] | [2]; [24] | [2]; [25] | [2]; [26] | [2]; [27] | [2]; [28] | [2]; [29] | [2]; [30] | [2]; [31] | [2]; [32] | [2]; [33] | [2]; [34] | [2]; [35] | [2]; [36] | [2]; [37] | [2]; [38] | [2]; [39] | [2]; [40] | [2]; [41] | [2]; [42] | [2]; [45] | [2]; [46] | [2]; [47] | [2]; [48] | [2]; [49] | [2]; [50] | [2]; [51] | [2]; [52] | [2]; [53] | [2]; [54] | [2]; [55] | [2]; [56] | [2]; [57] | [2]; [58] | [2]; [65] | [2]; [66] | [3]; [67] | [3]; ΔramRΔ36, ΔramRΔompK36 mutant
64 µg/mL: [1]; [4] | [2]; [63] | [2]; [64] | [3]; ΔramR mutant | [3]; ΔramRΔ35, ΔramRΔompK35 mutant

C[C@@H](O)[C@H]1C(=O)N2C(C(=O)O)=C(S[C@@H]3CN[C@H](C(=O)N(C)C)C3)[C@H](C)[C@H]12 [Meropenem]
0.125 µg/mL: [1]; [8] | [1]; [9] | [1]; [10]
0.06 µg/mL: [1]; [4] | [1]; [6] | [2]; [59] | [2]; [60] | [2]; [62] | [2]; [63] | [2]; [64] | [3]; WT, NVT1001, read-out: MIC | [3]; Δ35, ΔompK35 mutant | [3]; Δ36, ΔompK36 mutant | [3]; ΔramR mutant | [3]; ΔramRΔ35, ΔramRΔompK35 mutant
2 µg/mL: [1]; [5] | [1]; ΔramRΔompK35/36 mutant | [2]; [11] | [2]; [14] | [2]; [15] | [2]; [16] | [2]; [43] | [2]; [44] | [2]; [47] | [2]; [48] | [2]; [65] | [2]; [66] | [3]; [67] | [3]; ΔramRΔ36, ΔramRΔompK36 mutant
> 32 µg/mL: [2]; [13] | [2]; [17] | [2]; [18] | [2]; [20] | [2]; [21] | [2]; [22] | [2]; [24] | [2]; [25] | [2]; [26] | [2]; [29] | [2]; [30] | [2]; [32] | [2]; [33] | [2]; [34] | [2]; [37] | [2]; [38] | [2]; [41] | [2]; [42] | [2]; [45] | [2]; [49] | [2]; [50] | [2]; [52] | [2]; [53] | [2]; [54] | [2]; [55] | [2]; [57] | [2]; [58]
8 µg/mL: [2]; [46]
32 µg/mL: [2]; [19] | [2]; [23] | [2]; [28] | [2]; [31] | [2]; [35] | [2]; [36] | [2]; [39] | [2]; [40] | [2]; [56]
16 µg/mL: [2]; [27] | [2]; [51]
0.5 µg/mL: [1]; [7] | [2]; [61] | [3]; Δ35/36, ΔompK35/36 mutant
1 µg/mL: [2]; [12]
